Test results: the NIST ThermoML archive (doi:10.1016/j.jct.2009.05.011)
± gives the expanded uncertainty stated by the source.

Experiment: mn = molality of the nth substance listed, in mol/kg
Conditions: 101 kPa, Liquid, Vibrating tube method

CC(C)C[C@H](NC(=O)CN)C(=O)NCC(=O)O [glycyl-L-leucylglycine] + O
Conditions	mass density [kg/m3]
288.15 K, m1 = 0.03052	1001.2 ± 0.085
288.15 K, m1 = 0.04107	1001.91 ± 0.086
288.15 K, m1 = 0.05063	1002.57 ± 0.085
288.15 K, m1 = 0.06015	1003.2 ± 0.086
288.15 K, m1 = 0.07034	1003.9 ± 0.086
288.15 K, m1 = 0.08092	1004.6 ± 0.085
288.15 K, m1 = 0.09106	1005.27 ± 0.085
288.15 K, m1 = 0.1008	1005.92 ± 0.086
298.15 K, m1 = 0.01963	998.372 ± 0.085
298.15 K, m1 = 0.03198	999.201 ± 0.083
298.15 K, m1 = 0.04637	1000.16 ± 0.082
298.15 K, m1 = 0.0606	1001.11 ± 0.085
298.15 K, m1 = 0.07265	1001.9 ± 0.087
298.15 K, m1 = 0.08576	1002.77 ± 0.084
298.15 K, m1 = 0.09698	1003.5 ± 0.073
303.15 K, m1 = 0.01876	996.907 ± 0.09
303.15 K, m1 = 0.03847	998.204 ± 0.084
303.15 K, m1 = 0.04881	998.896 ± 0.085
303.15 K, m1 = 0.05715	999.436 ± 0.083
303.15 K, m1 = 0.06905	1000.22 ± 0.081
303.15 K, m1 = 0.07699	1000.73 ± 0.087
303.15 K, m1 = 0.08729	1001.4 ± 0.085
303.15 K, m1 = 0.09709	1002.03 ± 0.073
313.15 K, m1 = 0.01926	993.479 ± 0.086
313.15 K, m1 = 0.02873	994.105 ± 0.085
313.15 K, m1 = 0.04912	995.406 ± 0.085
313.15 K, m1 = 0.06755	996.608 ± 0.084
313.15 K, m1 = 0.07763	997.232 ± 0.083
313.15 K, m1 = 0.0869	997.826 ± 0.083
313.15 K, m1 = 0.1005	998.668 ± 0.082

CC[C@H](C)[C@H](NC(=O)CN)C(=O)NCC(=O)O [glycyl-L-isoleucylglycine] + O
Conditions	mass density [kg/m3]
288.15 K, m1 = 0.0284	1001.07 ± 0.086
288.15 K, m1 = 0.03948	1001.83 ± 0.086
288.15 K, m1 = 0.04918	1002.5 ± 0.087
288.15 K, m1 = 0.05715	1003.04 ± 0.086
288.15 K, m1 = 0.06935	1003.87 ± 0.086
288.15 K, m1 = 0.07955	1004.56 ± 0.086
288.15 K, m1 = 0.08916	1005.21 ± 0.086
288.15 K, m1 = 0.1012	1006.02 ± 0.087
303.15 K, m1 = 0.01893	996.925 ± 0.086
303.15 K, m1 = 0.0328	997.846 ± 0.09
303.15 K, m1 = 0.04344	998.561 ± 0.092
303.15 K, m1 = 0.04827	998.872 ± 0.085
303.15 K, m1 = 0.05907	999.58 ± 0.084
303.15 K, m1 = 0.06849	1000.21 ± 0.097
303.15 K, m1 = 0.07945	1000.91 ± 0.086
303.15 K, m1 = 0.09989	1002.23 ± 0.083
313.15 K, m1 = 0.02969	994.182 ± 0.086
313.15 K, m1 = 0.04028	994.873 ± 0.085
313.15 K, m1 = 0.05061	995.543 ± 0.085
313.15 K, m1 = 0.05971	996.132 ± 0.084
313.15 K, m1 = 0.07966	997.418 ± 0.084

CC(C)[C@H](NC(=O)CN)C(=O)NCC(=O)O [glycyl-L-valylglycine] + O
Conditions	mass density [kg/m3]
288.15 K, m1 = 0.01862	1000.45 ± 0.089
288.15 K, m1 = 0.02808	1001.13 ± 0.089
288.15 K, m1 = 0.03769	1001.83 ± 0.089
288.15 K, m1 = 0.04662	1002.47 ± 0.089
288.15 K, m1 = 0.05168	1002.82 ± 0.088
288.15 K, m1 = 0.05581	1003.11 ± 0.089
288.15 K, m1 = 0.06152	1003.53 ± 0.089
288.15 K, m1 = 0.07369	1004.39 ± 0.089
288.15 K, m1 = 0.08031	1004.86 ± 0.089
303.15 K, m1 = 0.02786	997.6 ± 0.13
303.15 K, m1 = 0.0373	998.253 ± 0.086
303.15 K, m1 = 0.04619	998.869 ± 0.1
303.15 K, m1 = 0.05567	999.521 ± 0.086
303.15 K, m1 = 0.06481	1000.14 ± 0.091
303.15 K, m1 = 0.07464	1000.82 ± 0.087
303.15 K, m1 = 0.08365	1001.43 ± 0.093
303.15 K, m1 = 0.09397	1002.14 ± 0.087
313.15 K, m1 = 0.02103	993.668 ± 0.088
313.15 K, m1 = 0.02584	993.998 ± 0.088
313.15 K, m1 = 0.03709	994.764 ± 0.087
313.15 K, m1 = 0.05558	996.017 ± 0.087
313.15 K, m1 = 0.06483	996.652 ± 0.087
313.15 K, m1 = 0.0741	997.273 ± 0.087
313.15 K, m1 = 0.08323	997.9 ± 0.086
313.15 K, m1 = 0.09182	998.467 ± 0.085

NCC(=O)N[C@@H](Cc1ccccc1)C(=O)NCC(=O)O [glycyl-L-phenylalanylglycine] + O
Conditions	mass density [kg/m3]
288.15 K, m1 = 0.005986	999.628 ± 0.1
288.15 K, m1 = 0.008946	999.888 ± 0.1
288.15 K, m1 = 0.01159	1000.12 ± 0.1
288.15 K, m1 = 0.01398	1000.33 ± 0.1
288.15 K, m1 = 0.01783	1000.66 ± 0.1
288.15 K, m1 = 0.02035	1000.89 ± 0.1
288.15 K, m1 = 0.02318	1001.13 ± 0.1
288.15 K, m1 = 0.0251	1001.3 ± 0.1
303.15 K, m1 = 0.00896	996.415 ± 0.27
303.15 K, m1 = 0.01148	996.632 ± 0.088
303.15 K, m1 = 0.01353	996.804 ± 0.084
303.15 K, m1 = 0.01556	996.971 ± 0.15
303.15 K, m1 = 0.01814	997.19 ± 0.11
303.15 K, m1 = 0.01958	997.317 ± 0.082
303.15 K, m1 = 0.02246	997.559 ± 0.056
303.15 K, m1 = 0.02447	997.735 ± 0.15
313.15 K, m1 = 0.004093	992.563 ± 0.1
313.15 K, m1 = 0.00896	992.969 ± 0.1
313.15 K, m1 = 0.01149	993.182 ± 0.1
313.15 K, m1 = 0.01353	993.351 ± 0.099
313.15 K, m1 = 0.01556	993.516 ± 0.099
313.15 K, m1 = 0.01761	993.683 ± 0.1
313.15 K, m1 = 0.02033	993.916 ± 0.1
313.15 K, m1 = 0.02333	994.159 ± 0.1
313.15 K, m1 = 0.02522	994.324 ± 0.1

NCC(=O)N1CCC[C@H]1C(=O)NCC(=O)O [glycyl-L-prolylglycine] + O
Conditions	mass density [kg/m3]
288.15 K, m1 = 0.02017	1000.83 ± 0.1
288.15 K, m1 = 0.0252	1001.26 ± 0.1
288.15 K, m1 = 0.02989	1001.66 ± 0.1
288.15 K, m1 = 0.0347	1002.07 ± 0.1
288.15 K, m1 = 0.04017	1002.54 ± 0.1
288.15 K, m1 = 0.04486	1002.93 ± 0.1
288.15 K, m1 = 0.04775	1003.19 ± 0.1
288.15 K, m1 = 0.05375	1003.69 ± 0.1
303.15 K, m1 = 0.02292	997.573 ± 0.099
303.15 K, m1 = 0.02697	997.912 ± 0.11
303.15 K, m1 = 0.03212	998.333 ± 0.11
303.15 K, m1 = 0.03677	998.728 ± 0.11
303.15 K, m1 = 0.04242	999.195 ± 0.1
303.15 K, m1 = 0.04731	999.598 ± 0.096
303.15 K, m1 = 0.05219	1000.01 ± 0.053
313.15 K, m1 = 0.02757	994.502 ± 0.098
313.15 K, m1 = 0.03212	994.873 ± 0.099
313.15 K, m1 = 0.03715	995.286 ± 0.099
313.15 K, m1 = 0.04242	995.724 ± 0.098
313.15 K, m1 = 0.04731	996.116 ± 0.098
313.15 K, m1 = 0.05169	996.482 ± 0.1

CSCC[C@H](NC(=O)CN)C(=O)NCC(=O)O [glycyl-L-methionylglycine] + O
Conditions	mass density [kg/m3]
288.15 K, m1 = 0.02065	1000.96 ± 0.1
288.15 K, m1 = 0.02481	1001.33 ± 0.1
288.15 K, m1 = 0.03005	1001.79 ± 0.1
288.15 K, m1 = 0.04038	1002.71 ± 0.1
288.15 K, m1 = 0.05024	1003.58 ± 0.1
288.15 K, m1 = 0.06017	1004.46 ± 0.1
288.15 K, m1 = 0.07183	1005.48 ± 0.1
288.15 K, m1 = 0.07978	1006.18 ± 0.1
288.15 K, m1 = 0.0913	1007.18 ± 0.11
303.15 K, m1 = 0.03024	998.275 ± 0.14
303.15 K, m1 = 0.03988	999.096 ± 0.11
303.15 K, m1 = 0.05998	1000.82 ± 0.096
303.15 K, m1 = 0.06988	1001.65 ± 0.097
303.15 K, m1 = 0.07911	1002.43 ± 0.099
303.15 K, m1 = 0.08988	1003.32 ± 0.11
303.15 K, m1 = 0.1012	1004.27 ± 0.1
313.15 K, m1 = 0.0199	993.923 ± 0.1
313.15 K, m1 = 0.03002	994.787 ± 0.1
313.15 K, m1 = 0.04003	995.629 ± 0.1
313.15 K, m1 = 0.05041	996.504 ± 0.1
313.15 K, m1 = 0.061	997.393 ± 0.1
313.15 K, m1 = 0.07039	998.173 ± 0.1
313.15 K, m1 = 0.08051	999.015 ± 0.1
